Results taken from patent US6777418B2, “Retinoid compounds (I)” (Syntex (U.S.A.) LLC, priority 2000, dated 2004).
Several values for one entry are separate records, joined by “and”; a condition that tells them apart may be missing. Equal entries are not always repeated.

For `CC1(C)CCC(C)(C)c2cc(CCc3nccs3)c(/C=C/c3ccc(C(=O)O)cc3)cc21` [Compound 40, 4-{(E)-2-[5,5,8,8-tetramethyl-3-(2-thiazol-2-yl-ethyl)-5,6,7,8-tetrahydro-naphthalen-2-yl)vinyl]benzoic acid], the melting point was 215.8 to 217.5 °C.
In the case of `CC1(C)CC(=O)C(C)(C)c2cc(Cn3cccn3)c(/C=C/c3ccc(C(=O)O)cc3)cc21` [Compound 133, 4-[(E)-2-(5,5,8,8-tetramethyl-3-pyrazol-1-ylmethyl-6-oxo-5,6,7,8-tetrahydro-naphthalen-2-yl)vinyl]-benzoic acid], the melting point is reported as 233 to 233.5 °C.
With `CC1(C)CCC(C)(C)c2cc(CCc3ncccn3)c(/C=C/c3ccc(C(=O)O)cc3)cc21` [Compound 41] the melting point was 228 to 228.9 °C.
Compound `CC1(C)CCC(C)(C)c2cc(-c3ccsc3)c(/C=C/c3ccc(C(=O)O)cc3)cc21` has a melting point of 244.5 to 245.8 °C.
`CC1(C)CC(=O)C(C)(C)c2cc(/C=C/c3ccc(C(=O)O)cc3)c(Cn3cccn3)cc21` [Compound 144, (E)-4-[2-(3-(pyrazole-1-ylmethyl)-7-oxo-5,5,8,8-tetramethyl-5,6,7,8-tetrahydronaphthalene-2-yl)vinyl]benzoic acid] showed a melting point of 264.8 to 265.9 °C.
`Cn1cnnc1SCc1cc2c(cc1/C=C/c1ccc(C(=O)O)cc1)C(C)(C)CCC2(C)C` [Compound 22] showed a melting point of 251.6 to 252.6 °C.
Compound `CC1(C)CCC(C)(C)c2cc(CSCC(O)CO)c(/C=C/c3ccc(C(=O)O)cc3)cc21` (centres unmarked) [Compound 9] has a melting point of 174.8 to 175.9 °C.
With `CC1(C)CC(O)C(C)(C)c2cc(Cn3cccn3)c(/C=C/c3ccc(C(=O)O)cc3)cc21` (centres unmarked) [Compound 55, 4-[(E)-2-(5,5,8,8-tetramethyl-3pyrazol-1-ylmethyl-6-hydroxy-5,6,7,8-tetrahydro-naphthalen-2-yl)vinyl]benzoic acid] the melting point was 241.6 to 242 °C.
With `CCOCCCc1cc2c(cc1/C=C/c1ccc(C(=O)O)cc1)C(C)(C)CCC2(C)C` [Compound 10, 4-{(E)-2-[3-(3-ethoxypropyl)-5,8,8-tetramethyl-5,6,7,8-tetrahydro-naphthalen-2-yl]vinyl}benzoic acid] the melting point was 169.4 to 173.3 °C.
In the case of `CC1(C)CCC(C)(C)c2cc(Cn3cccn3)c(/C=C/c3ccc(C(=O)N4CCCCC4)cc3)cc21` [Compound 166, 4-[(E)-2-(5,5,8,8-tetramethyl-3-pyrzol-1-ylmethyl-5,6,7,8-tetrahydro-naphthalen-2-yl)vinyl]benzoic acid piperidine amide], the melting point is reported as 171.6 to 172.5 °C.
Work on `CC1(C)CCC(C)(C)c2cc(Cn3cccn3)c(/C=C/c3ccc(C(=O)O)c(F)c3)cc21` [Compound 47, 2-Fluoro-4-[(E)-2-[5,5,8,8-tetramethyl-3-pyrazol-1-ylmethyl-5,6,7,8-tetrahydronaphthalen-2-yl)vinyl]benzoic acid] yielded a melting point of 177 to 179 °C.
Work on `CC1(C)CCC(C)(C)c2cc(Sc3ncccn3)c(/C=C/c3ccc(C(=O)O)cc3)cc21` [Compound 155, 4-{(E)-2-[5,5,8,8-Tetramethyl-3-(mercaptopyrmidin-2-yl)-5,6,7,8-tetrahydro-naphthalen-2-yl)vinyl]benzoic acid] yielded a melting point of 283 to 283.5 °C.
With `CC1(C)CCC(C)(C)c2cc(Cc3ccc(F)cc3F)c(/C=C/c3ccc(C(=O)O)cc3)cc21` [Compound 43, 4-{(E)-2-[5,5,8,8-tetramethyl-3-(2,4-difluorobenzyl)-5,6,7,8-tetrahydro-naphthalen-2-yl]vinyl}benzoic acid] the melting point was 204.3 to 205.7 °C.
With `CC1(C)c2cc(/C=C/c3ccc(C(=O)O)cc3)c(Cn3cccn3)cc2C(C)(C)[C@@H](O)[C@H]1O` (stereo in doubt) [Compound 148, 4-[(E)-2-(5,5,8,8-tetramethyl-3-pyrazol-1-ylmethyl-6,7-cis-dihydroxy-5,6,7,8-tetrahydro-naphthalen-2-yl)vinyl]-benzoic acid] the melting point was 238.3 to 241.5 °C and 238.5 to 241.5 °C.
With `CC1(C)CCC(C)(C)c2cc(Cn3cccn3)c(/C=C/c3ccc(C(N)=O)cc3)cc21` [Compound 165, 4-[(E)-2-(5,5,8,8-tetramethyl-3-pyrzol-1-ylmethyl-5,6,7,8-tetrahydro-naphthalen-2-yl)vinyl]benzamide] the melting point was 248 to 249 °C.
With `CC1(C)CCC(C)(C)c2cc(CSC3CCCC3)c(/C=C/c3ccc(C(=O)O)cc3)cc21` [Compound 4] the melting point was 209.4 to 211.3 °C.
Work on `Cc1ccc(Cc2cc3c(cc2/C=C/c2ccc(C(=O)O)cc2)C(C)(C)CCC3(C)C)cc1` [Compound 42, 4-{(E)-2-[5,5,8,8-tetramethyl-3-(4-methylbenzyl)-5,6,7,8-tetrahydro-naphthalen-2-yl]vinyl}benzoic acid] yielded a melting point of 216.3 to 217.3 °C.
`CC1(C)CC(O)C(C)(C)c2cc(/C=C/c3ccc(C(=O)O)cc3)c(Cn3cccn3)cc21` (centres unmarked) [Compound 137, (E)-4-[2-(3-(pyrazole-1-ylmethyl)-7-hydroxy-5,5,8,8-tetramethyl-5,6,7,8-tetrahydronaphthalene-2-yl)vinyl]benzoic acid] gave a melting point of 247.6 to 248.4 °C.
With `Cc1nnc(SCc2cc3c(cc2/C=C/c2ccc(C(=O)O)cc2)C(C)(C)CCC3(C)C)s1` [Compound 23] the melting point was 218.1 to 218.5 °C.
Work on `Cc1nnc(SCCc2cc3c(cc2/C=C/c2ccc(C(=O)O)cc2)C(C)(C)CCC3(C)C)s1` [Compound 27, 4-((E)-2-{5,5,8,8-tetramethyl-3-[3-(5-methyl-[1,3,4]thiadizol-2ylsulfanyl)-ethyl]-5,6,7,8-tetrahydro-naphthalen-2-yl}vinyl)benzoic acid] yielded a melting point of 244.7 to 245.2 °C.
For `Cc1nnc(SCCCc2cc3c(cc2/C=C/c2ccc(C(=O)O)cc2)C(C)(C)CCC3(C)C)s1` [Compound 28, 4-((E)-2-{5,5,8,8-Tetramethyl-3-[3-(5-methyl-[1,3,4]thiadiazol-2-ylsulfanyl)-propyl]-5,6,7,8-tetrahydro-naphthalen-2-yl}vinyl)benzoic acid], the melting point was 144 to 145.3 °C.
With `CC1(C)CCC(C)(C)c2cc(Cc3cccs3)c(/C=C/c3ccc(C(=O)O)cc3)cc21` [Compound 44, 4-[(E)-2-(5,5,8,8-tetramethyl-3-thiophen-2ylmethyl-5,6,7,8-tetrahydro-naphthalen-2-yl)vinyl]benzoic acid] the melting point was 229.1 to 229.6 °C.
Work on `CC1(C)CCC(C)(C)c2cc(CCCn3cccn3)c(/C=C/c3ccc(C(=O)O)cc3)cc21` [Compound 30, 4-{(E)-2-[5,5,8,8-tetramethyl-3-(3-pyrazol-1-ylpropyl)-5,6,7,8-tetrahydro-naphthalen-2-yl]vinyl}benzoic acid] yielded a melting point of 181.5 to 182.5 °C.
In the case of `CC1(C)CCC(C)(C)c2cc(CCn3cccn3)c(/C=C/c3ccc(C(=O)O)cc3)cc21` [Compound 29, 4-{(E)-2-[5,5,8,8-tetramethyl-3-(2-pyrazol-1-ylethyl)-5,6,7,8-tetrahydro-naphthalen-2-yl]vinyl}benzoic acid], the melting point is reported as 235.3 to 235.9 °C.
In the case of `CC1(C)CCC(C)(C)c2cc(Cn3cccn3)c(/C=C/c3ccc(C(=O)O)s3)cc21` [Compound 45, 5-[(E)-2-(5,5,8,8-tetramethyl-3-pyrazol-1-ylmethyl-5,6,7,8-tetrahydro-naphthalen-2-yl)vinyl]-thiophene-2-carboxylic acid], the melting point is reported as 168 to 174 °C.
For `CC1(C)CCC(C)(C)c2cc(-c3cccs3)c(/C=C/c3ccc(C(=O)O)cc3)cc21`, the melting point was 242.5 to 243.6 °C.
